Paper PMC11808136, “Screening and identification of host signaling pathways for alleviating influenza-induced production of pro-inflammatory cytokines, IP-10, IL-8, and MCP-1, using a U937 cell-based influenza model” (Frontiers in Microbiology, 2025)
Where a name gives a salt, the structure may show the parent alone. Read-outs that look alike come from different tables or passages of the source.

Experiments:
[1] = test system: MCP-1 production in influenza virus-infected U937 cells (H1N1); experiment: cells; assay type: cell-based
[2] = test system: IP-10 production in influenza virus-infected U937 cells (H1N1); experiment: cells; assay type: cell-based
[3] = test system: IL-8 production in influenza virus-infected U937 cells (H1N1); experiment: cells; assay type: cell-based, Human
in vitro = details: human
[4] = secondary screen, Supplemental Table 1, read-out: EC50 MCP-1
[5] = secondary screen, Supplemental Table 1
[6] = secondary screen, Supplemental Table 1, read-out: EC50 IP-10
[7] = secondary screen, Supplemental Table 1, read-out: EC50 IL-8
[8] = Homo sapiens, U-937, read-out: EC50 MCP-1
[9] = CC50, secondary screen, Supplemental Table 1
[10] = Homo sapiens, U-937, read-out: EC50 IP-10
[11] = Homo sapiens, U-937, secondary screen, Supplemental Table 1, read-out: EC50 IL-8
[12] = Homo sapiens, U-937, secondary screen, Supplemental Table 1, read-out: EC50 MCP-1
[13] = Homo sapiens, U-937, secondary screen, Supplemental Table 1, read-out: EC50 IP-10

Compound | EC50 [1, 4] | CC50 (U937 cells; [5]) | EC50 [2, 6] | EC50 [3, 7] | CC50 (in vitro; [9]) | EC50 [3, 11] | EC50 [1, 12] | EC50 [2, 13] | also measured
Cc1ccc(NC(=O)c2cccc(C(C)(C)C#N)c2)cc1Nc1ccc2ncn(C)c(=O)c2c1 [AZ 628] | 180 nM | > 100000 nM | 970 nM | 100 nM |  |  |  |  | 
Cc1cc(Nc2nc(N[C@@H](C)c3ccc(F)cc3)c(C#N)cc2F)n[nH]1 [AZ 960] |  |  |  |  | 6000 nM | < 5 nM |  |  | EC50 [1, 8]: < 5 nM; EC50 [2, 10]: 10 nM
Cc1ccc(-n2nc(C(C)(C)C)cc2NC(=O)Nc2ccc(OCCN3CCOCC3)c3ccccc23)cc1 [BIRB 796, Doramapimod] |  |  |  |  |  | 5220 nM |  |  | EC50 [1, 8]: 10000 nM; IC50 ([1]; Homo sapiens, U-937, read-out: IC50 MCP-1): 10000 nM; CC50 (in vitro): > 100000 nM; EC50 [2, 10]: 9200 nM; IC50 ([3]; Homo sapiens, U-937): 5200 nM
O=C(Nc1cccc(Nc2ncc(Br)c(NCCc3cnc[nH]3)n2)c1)N1CCCC1 [BX-912] | 360 nM | > 100000 nM | 1050 nM | 410 nM |  |  |  |  | 
Cc1ccc(NC(=O)c2ccc(CN3CC[C@H](N(C)C)C3)c(C(F)(F)F)c2)cc1Nc1nccc(-c2cncnc2)n1 [Bafetinib (INNO-406), Bafetinib] |  |  |  |  | 100000 nM | 590 nM |  |  | EC50 [1, 8]: 860 nM; EC50 [2, 10]: 410 nM
CN1CCN(c2cccc(Nc3nc4c(-c5ccc(S(C)(=O)=O)cc5)cccn4n3)c2)CC1 [CEP-33779] | 240 nM | 10500 nM | 220 nM | 360 nM |  |  |  |  | 
CC#CC(=O)Nc1ccc2ncnc(Nc3cccc(Br)c3)c2c1 [CL-387785 (EKI-785)] | 640 nM | 7090 nM | 410 nM | 420 nM |  |  |  |  | 
C=CC(=O)Nc1cccc(Nc2nc(Nc3ccc(Oc4ccnc(C(=O)NC)c4)cc3)ncc2F)c1 [CNX-774] | 160 nM | 15500 nM | 1460 nM | 10 nM |  |  |  |  | 
N#CCNC(=O)c1ccc(-c2ccnc(Nc3ccc(N4CCOCC4)cc3)n2)cc1 [CYT387] |  |  |  |  | 5400 nM | 300 nM | 30 nM | 480 nM | 
CCS(=O)(=O)N1CCN(c2ccc(Nc3ncc(C(N)=O)c(NC4CC4)n3)cc2)CC1 [Cerdulatinib (PRT062070, PRT2070), Cerdulatinib] |  |  |  |  | 3500 nM | < 5 nM | 20 nM | 50 nM | 
C=CC(=O)Nc1ccc(CN2C(=O)N(c3cc(OC)cc(OC)c3)Cc3cnc(Nc4ccc(N5CCN(C)CC5)cc4)nc32)cc1 [FIIN-2] | 140 nM | 16700 nM | 320 nM | 30 nM |  |  |  |  | 
COc1cc(Nc2ncc(F)c(Nc3ccc4c(n3)N(COP(=O)(O)O)C(=O)C(C)(C)O4)n2)cc(OC)c1OC [Fostamatinib (R788), Fostamatinib] |  |  |  |  | 40000 nM | 340 nM | 170 nM | 500 nM | 
Cc1ccc(C(=O)Nc2ccc(CN3CCN(C)CC3)c(C(F)(F)F)c2)cc1C#Cc1cnc2[nH]ncc2c1 [GZD824] |  |  |  |  | 4800 nM | < 5 nM | < 5 nM | < 5 nM | 
O=C(c1ccc(Nc2nccc(-c3cc4ccccc4s3)n2)cc1)N1CCC(N2CCCC2)CC1 [IKK-16 (IKK Inhibitor VII)] | < 5 nM | 8900 nM | < 5 nM | < 5 nM |  |  |  |  | 
O=C(Nc1cc(C(F)(F)F)cc(C(F)(F)F)c1)c1cc(Cl)ccc1O [IMD 0354] |  |  |  |  |  | 20 nM | 60 nM | 80 nM | CC50 (in vitro): 1100 nM
CC(C)n1nc(-c2ccc3oc(N)nc3c2)c2c(N)ncnc21 [INK 128 (MLN0128)] | 40 nM | 5900 nM | 120 nM |  |  |  |  |  | 
Cc1cc(Nc2cc(CN3CCOCC3)c3nc(C)c(Cc4ccc(Cl)cc4F)n3n2)n[nH]1 [LY2784544] |  |  |  |  | 26000 nM | < 5 nM | < 5 nM | 10 nM | 
C[C@@H](Oc1ccc2[nH]nc(/C=C/c3cnn(CCO)c3)c2c1)c1c(Cl)cncc1Cl [LY2874455] |  |  |  |  | 3400 nM | < 5 nM | < 5 nM | < 5 nM | 

Compound | EC50 [1, 4] | CC50 (U937 cells; [5]) | EC50 [2, 6] | EC50 [3, 7] | CC50 (in vitro; [9]) | EC50 [3, 11] | EC50 [1, 12] | EC50 [2, 13] | also measured
CNS(=O)(=O)C[C@H]1CC[C@H](N(C)c2ncnc3[nH]ccc23)CC1 [Oclacitinib] |  |  |  |  | 50000 nM | 50 nM |  |  | EC50 [1, 8]: 190 nM; EC50 [2, 10]: 180 nM
NC(=O)c1cnc2[nH]ccc2c1N[C@@H]1[C@@H]2CC3C[C@H]1C[C@@](O)(C3)C2 [Peficitinb (ASP015K, JNJ-54781532), Peficitinb] | 10 nM | 34700 nM | 20 nM |  |  |  |  |  | 
CCOc1cc2ncc(C#N)c(Nc3ccc(F)c(Cl)c3)c2cc1NC(=O)/C=C/CN(C)C [Pelitinib (EKB-569), Pelitinib] |  |  |  |  | 1700 nM |  | 20 nM | 130 nM | 
C=CC(=O)N1CCC(Oc2cc3c(Nc4ccc(Cl)c(Cl)c4F)ncnc3cc2OC)CC1 [Poziotinib (HM781-36B), Poziotinib] |  |  |  |  | 24100 nM | 340 nM | 660 nM | 570 nM | 
COc1cc(Nc2ncc(F)c(Nc3ccc4c(n3)NC(=O)C(C)(C)O4)n2)cc(OC)c1OC [R406 (free base)] | 1130 nM | > 100000 nM | 700 nM | 2750 nM |  |  |  |  | 
COc1cc(Nc2ncc(F)c(Nc3ccc4c(n3)N(COP(=O)(O)O)C(=O)C(C)(C)O4)n2)cc(OC)c1OC [R788 (Fostamatinib) Disodium] | 160 nM | 7400 nM | 390 nM | 60 nM |  |  |  |  | 
CNC(=O)c1cc(Oc2ccc(NC(=O)Nc3ccc(Cl)c(C(F)(F)F)c3)c(F)c2)ccn1 [Regorafenib (BAY 73-4506), Regorafenib] |  |  |  |  | 20000 nM | 610 nM | 1710 nM | 1800 nM | 
N#CC[C@H](C1CCCC1)n1cc(-c2ncnc3[nH]ccc23)cn1 [Ruxolitinib (INCB018424), Ruxolitinib] |  |  |  |  |  |  | 30 nM | 70 nM | CC50 (in vitro; CC50): 100000 nM; EC50 ([3]; Homo sapiens, U-937, read-out: EC50 IL-8): 120 nM
Cc1cc(Nc2ncc3c(n2)N(C)C(=O)N(c2cc(NC(=O)c4cccc(C(F)(F)F)c4)ccc2C)C3)n(C)n1 [SC1] | 40 nM | > 100000 nM | 10 nM | < 5 nM |  |  |  |  | 
Cc1c[nH]c2nc(Nc3ccc(N4CCN(C)CC4)c(F)c3)nc(-c3cccc(CC#N)c3)c12 [SGI-7079] | < 5 nM | 3850 nM | < 5 nM | < 5 nM |  |  |  |  | 
CCN(CC)CCNC(=O)c1c(C)[nH]c(/C=C2\C(=O)Nc3ccc(F)cc32)c1C [Sunitinib Malate] |  |  |  |  | 24900 nM | 50 nM | 350 nM | 660 nM | 
NC(=O)Nc1sc(-c2ccc(F)cc2)cc1C(N)=O [TPCA-1] | 120 nM | 11000 nM | 70 nM | 280 nM |  |  |  |  | 
C[C@@H]1CCN(C(=O)CC#N)C[C@@H]1N(C)c1ncnc2[nH]ccc12 [Tofacitinib (CP-690550) Citrate] |  | > 100000 nM |  |  |  |  |  |  | 
C[C@@H]1CCN(C(=O)CC#N)C[C@@H]1N(C)c1ncnc2[nH]ccc12 [Tofacitinib] |  |  |  |  |  |  |  |  | CC50 (in vitro; CC50): > 100000 nM
CC(C)(C)c1cc(C=C(C#N)C#N)cc(C(C)(C)C)c1O [Tyrphostin 9] | 80 nM | 8260 nM | 90 nM | 40 nM |  |  |  |  | 
C=CC(=O)Nc1cccc(Oc2nc(Nc3ccc(N4CCN(C)CC4)cc3)ncc2Cl)c1 [WZ3146] | < 5 nM |  | 680 nM | 10 nM |  |  |  |  | CC50 (U937 cells): 14000 nM
S-Ruxolitinib [S-Ruxolitinib (INCB018424)] |  |  |  |  |  |  |  |  | EC50 ([1]; read-out: EC50 MCP-1): 60 nM; EC50 ([2]; read-out: EC50 IP-10): 80 nM; EC50 ([3]; read-out: EC50 IL-8): 30 nM
